Reference: ChEMBL document CHEMBL4138123, “Design, synthesis and biological evaluation of novel pyrazolochalcones as potential modulators of PI3K/Akt/mTOR pathway and inducers of apoptosis in breast cancer cells” (Eur J Med Chem, 2017)

How the values were obtained:
Type in all cases: functional
[1] = system: RPMI-8226; assay: Cytotoxicity against human RPMI8226 cells assessed as cell growth at 1 uM after 48 hrs by sulforhodamine B assay relative to control; details: RPMI-8226, 48 h, read-out: Activity
[2] = system: HCT-116; assay: Cytotoxicity against human HCT116 cells assessed as cell growth at 10 uM after 48 hrs by sulforhodamine B assay relative to control; details: HCT-116, 48 h, read-out: Activity
[3] = system: 786-0; assay: Cytotoxicity against human 786-0 cells assessed as cell growth at 10 uM after 48 hrs by sulforhodamine B assay relative to control; details: 786-0, 48 h, read-out: Activity
[4] = system: TK-10; assay: Cytotoxicity against human TK10 cells assessed as growth inhibition after 48 hrs by sulforhodamine B assay; details: TK-10, 48 h
[5] = system: ACHN; assay: Cytotoxicity against human ACHN cells assessed as cell growth at 0.01 uM after 48 hrs by sulforhodamine B assay relative to control; details: read-out: Activity
[6] = system: Malme-3M; assay: Cytotoxicity against human MALME-3M cells assessed as cell growth at 0.01 uM after 48 hrs by sulforhodamine B assay relative to control; details: read-out: Activity
[7] = system: K562; assay: Cytotoxicity against human K562 cells assessed as cell growth at 0.1 uM after 48 hrs by sulforhodamine B assay relative to control; details: K562, 48 h, read-out: Activity
[8] = system: MOLT-4; assay: Cytotoxicity against human MOLT4 cells assessed as cell growth at 10 uM after 48 hrs by sulforhodamine B assay relative to control; details: MOLT-4, 48 h, read-out: Activity
[9] = system: TK-10; assay: Cytotoxicity against human TK10 cells assessed as cell growth at 0.01 uM after 48 hrs by sulforhodamine B assay relative to control; details: TK-10, 48 h, read-out: Activity
[10] = system: SF-539; assay: Cytotoxicity against human SF539 cells assessed as cell growth at 0.1 uM after 48 hrs by sulforhodamine B assay relative to control; details: SF-539, 48 h, read-out: Activity
[11] = system: TK-10; assay: Cytotoxicity against human TK10 cells assessed as cell growth at 0.1 uM after 48 hrs by sulforhodamine B assay relative to control; details: TK-10, 48 h, read-out: Activity
[12] = system: KM12; assay: Cytotoxicity against human KM12 cells assessed as cell growth at 1 uM after 48 hrs by sulforhodamine B assay relative to control; details: KM12, 48 h, read-out: Activity
[13] = system: MDA-MB-468; assay: Cytotoxicity against human MDA-MB-468 cells assessed as cell growth at 100 uM after 48 hrs by sulforhodamine B assay relative to control; details: MDA-MB-468, 48 h, read-out: Activity
[14] = system: HCT-15; assay: Cytotoxicity against human HCT15 cells assessed as growth inhibition after 48 hrs by sulforhodamine B assay; details: HCT-15, 48 h
[15] = system: RXF 393; assay: Cytotoxicity against human RXF393 cells assessed as cell growth at 1 uM after 48 hrs by sulforhodamine B assay relative to control; details: RXF 393, 48 h, read-out: Activity
[16] = system: HT-29; assay: Cytotoxicity against human HT-29 cells assessed as cell growth at 0.01 uM after 48 hrs by sulforhodamine B assay relative to control; details: HT-29, 48 h, read-out: Activity
[17] = system: BT-549; assay: Cytotoxicity against human BT549 cells assessed as cell growth at 10 uM after 48 hrs by sulforhodamine B assay relative to control; details: BT-549, 48 h, read-out: Activity
[18] = system: SK-MEL-28; assay: Cytotoxicity against human SK-MEL-28 cells assessed as cell growth at 0.01 uM after 48 hrs by sulforhodamine B assay relative to control; details: SK-MEL-28, 48 h, read-out: Activity
[19] = system: UO-31; assay: Cytotoxicity against human UO31 cells assessed as cell growth at 0.01 uM after 48 hrs by sulforhodamine B assay relative to control; details: UO-31, 48 h, read-out: Activity
[20] = system: Malme-3M; assay: Cytotoxicity against human MALME-3M cells assessed as cell growth at 10 uM after 48 hrs by sulforhodamine B assay relative to control; details: read-out: Activity
[21] = system: MDA-MB-435; assay: Cytotoxicity against human MDA-MB-435 cells assessed as cell growth at 100 uM after 48 hrs by sulforhodamine B assay relative to control; details: MDA-MB-435, 48 h, read-out: Activity
[22] = system: Malme-3M; assay: Cytotoxicity against human MALME-3M cells assessed as cell growth at 100 uM after 48 hrs by sulforhodamine B assay relative to control; details: read-out: Activity
[23] = system: NCI/ADR-RES; assay: Cytotoxicity against human NCI/ADR-RES cells assessed as cell growth at 100 uM after 48 hrs by sulforhodamine B assay relative to control; details: read-out: Activity
[24] = system: MDA-MB-468; assay: Cytotoxicity against human MDA-MB-468 cells assessed as cell growth at 10 uM after 48 hrs by sulforhodamine B assay relative to control; details: MDA-MB-468, 48 h, read-out: Activity
[25] = system: SK-OV-3; assay: Cytotoxicity against human SKOV3 cells assessed as cell growth at 1 uM after 48 hrs by sulforhodamine B assay relative to control; details: SK-OV-3, 48 h, read-out: Activity
[26] = system: MCF7; assay: Cytotoxicity against human MCF7 cells assessed as growth inhibition after 48 hrs by sulforhodamine B assay; details: MCF7, 48 h
[27] = system: HCC 2998; assay: Cytotoxicity against human HCC2998 cells assessed as cell growth at 1 uM after 48 hrs by sulforhodamine B assay relative to control; details: HCC 2998, 48 h, read-out: Activity
[28] = system: KM12; assay: Cytotoxicity against human KM12 cells assessed as growth inhibition after 48 hrs by sulforhodamine B assay; details: KM12, 48 h
[29] = system: NCI-H226; assay: Cytotoxicity against human NCI-H226 cells assessed as cell growth at 100 uM after 48 hrs by sulforhodamine B assay relative to control; details: NCI-H226, 48 h, read-out: Activity
[30] = system: NCI-H23; assay: Cytotoxicity against human NCI-H23 cells assessed as cell growth at 0.01 uM after 48 hrs by sulforhodamine B assay relative to control; details: NCI-H23, 48 h, read-out: Activity
[31] = system: HT-29; assay: Cytotoxicity against human HT-29 cells assessed as cell growth at 100 uM after 48 hrs by sulforhodamine B assay relative to control; details: HT-29, 48 h, read-out: Activity
[32] = system: ACHN; assay: Cytotoxicity against human ACHN cells assessed as cell growth at 100 uM after 48 hrs by sulforhodamine B assay relative to control; details: read-out: Activity
[33] = system: ACHN; assay: Cytotoxicity against human ACHN cells assessed as cell growth at 10 uM after 48 hrs by sulforhodamine B assay relative to control; details: read-out: Activity
[34] = system: CCRF-CEM; assay: Cytotoxicity against human CCRF-CEM cells assessed as cell growth at 100 uM after 48 hrs by sulforhodamine B assay relative to control; details: read-out: Activity
[35] = system: K562; assay: Cytotoxicity against human K562 cells assessed as cell growth at 100 uM after 48 hrs by sulforhodamine B assay relative to control; details: K562, 48 h, read-out: Activity

| Compound | growth at 1 µM [1] [%] | growth at 10 µM [2] [%] | growth at 10 µM [3] [%] | TGI [4] [µM] | growth at 0.01 µM [5] [%] | growth at 0.01 µM [6] [%] | growth at 0.1 µM [7] [%] | growth at 10 µM [8] [%] | growth at 0.01 µM [9] [%] | growth at 0.1 µM [10] [%] | growth at 0.1 µM [11] [%] | growth at 1 µM [12] [%] | growth at 100 µM [13] [%] | TGI [14] [µM] | growth at 1 µM [15] [%] | growth at 0.01 µM [16] [%] | growth at 10 µM [17] [%] | growth at 0.01 µM [18] [%] | growth at 0.01 µM [19] [%] | growth at 10 µM [20] [%] | further results |
| --- | --- | --- | --- | --- | --- | --- | --- | --- | --- | --- | --- | --- | --- | --- | --- | --- | --- | --- | --- | --- | --- |
| COc1ccc(C(=O)/C=C/c2cc(-c3ccc(OC)c(OC)c3)n[nH]2)cc1OC | 17 | -69 | -32 | 47.7 | 93 | 99 | 97 | 5 | 98 | 89 | 96 | 37 | -64 | 5.39 | 76 | 98 | -87 | 89 | 89 | -27 | GI50 [4]: 4.96 µM; GI50 [14]: 1.09 µM; growth at 100 µM [21]: 2%; growth at 100 µM [22]: -11%; growth at 100 µM [23]: -15%; growth at 10 µM [24]: -80%; growth at 1 µM [25]: 90%; GI50 [26]: 0.937 µM; TGI [26]: 8.02 µM; growth at 1 µM [27]: 95%; GI50 [28]: 0.625 µM; TGI [28]: 2.08 µM; growth at 100 µM [29]: -5%; growth at 0.01 µM [30]: 101%; growth at 100 µM [31]: -39%; growth at 100 µM [32]: -60%; growth at 10 µM [33]: -54%; growth at 100 µM [34]: -20% |
| COc1cc(-c2cc(/C=C/C(=O)c3ccc(F)c(F)c3)[nH]n2)cc(OC)c1OC | 73 | 9 | 11 | 7.42 | 102 | 93 | 109 | -4 | 82 | 97 | 88 | 95 | -26 | > 100 | 82 | 104 | 23 | 102 | 90 | -3 | LC50 [4]: > 100 µM; LC50 [14]: > 100 µM; growth at 100 µM [35]: -7%; growth at 100 µM [21]: -34%; growth at 100 µM [22]: -31%; growth at 100 µM [23]: -5%; growth at 10 µM [24]: -2%; growth at 1 µM [25]: 90%; LC50 [26]: > 100 µM; TGI [26]: 12.3 µM; growth at 1 µM [27]: 99%; LC50 [28]: > 100 µM; TGI [28]: 11.4 µM; growth at 100 µM [29]: -65%; growth at 0.01 µM [30]: 95%; growth at 100 µM [31]: -67%; growth at 10 µM [33]: 2%; growth at 100 µM [34]: -4% |
